Experimental data published in patent US11247973B2 (The University of Durham, priority 2016, dated 2022).

Tests used:
MDR1-MDCK cells = test: MDR1-MDCK permeability assay; type: in vitro ADME
Description: (§1) MDR1-MDCK cells obtained from the NIH (Rockville, Md., USA) are used between passage numbers 6-30. Cells are seeded onto Millipore Multiscreen Transwell plates at 3.4×10^5 cells/cm^2. The cells are cultured in DMEM and media is changed on day 3. On day 4 the permeability study is performed. Cell culture and assay incubations are carried out at 37° C. in an atmosphere of 5% CO2 with a relative humidity of 95%. On the day of the assay, the monolayers are prepared by rinsing both basolateral and apical surfaces twice with Hanks Balanced Salt Solution (HBSS) at the desired pH warmed to 37° C. Cells are then incubated with HBSS at the desired pH in both apical and basolateral compartments for 40 min to stabilise physiological parameters.
(§2) The dosing solutions are prepared by diluting compound 2 with assay buffer to give a final compound 2 concentration of 10 μM (final DMSO concentration of 1% v/v). The fluorescent integrity marker lucifer yellow is also included in the dosing solution. Analytical standards are prepared from test compound DMSO dilutions and transferred to buffer, maintaining a 1% v/v DMSO concentration.
(§3) For assessment of A-B permeability, HBSS is removed from the apical compartment and replaced with compound 2 dosing solution. The apical compartment insert is then placed into a companion plate containing fresh buffer (containing 1% v/v DMSO). For assessment of B-A permeability, HBSS is removed from the companion plate and replaced with compound 2 dosing solution. Fresh buffer (containing 1% v/v DMSO) is added to the apical compartment insert, which is then placed into the companion plate.
(§4) At 60 min the apical compartment inserts and the companion plates are separated and apical and basolateral samples diluted for analysis.
(§5) Compound 2 permeability is assessed in duplicate. Compounds of known permeability characteristics are run as controls on each assay plate.
(§6) Compound 2 and control compounds are quantified by LC-MS/MS cassette analysis using an 8-point calibration with appropriate dilution of the samples. The starting concentration (Co) is determined from the dosing solution and the experimental recovery calculated from Co and both apical and basolateral compartment concentrations.
(§7) The integrity of the monolayer throughout the experiment is checked by monitoring lucifer yellow permeation using fluorimetric analysis. Lucifer yellow permeation is high if monolayers have been damaged.

MDR1 = test: MDR1-MDCK permeability assay; type: in vitro ADME; settings: dog
Description: as §1, §2, §3, §4, §5, §6, §7

O=C(CNc1c(F)c(F)nc(F)c1F)N[C@H]1N=C(c2ccccc2)c2ccccc2NC1=O [Compound 2]
Permeability assessment in words (MDR1-MDCK cells): permeable compound but with a susceptibility for an efflux mechanism | Papp A→B at 60 min, 10 μM (MDR1; 10 μM, 60 min, read-out: Permeability A2B): 0.553 ×10⁻⁶ cm/s | Papp B→A at 60 min, 10 μM (MDR1; 10 μM, 60 min, read-out: Permeability B2A): 76.3 ×10⁻⁶ cm/s | efflux ratio at 60 min, 10 μM (MDR1; read-out: Efflux ratio B2A/A2B): 138
